One data set concerns the target Melanocortin receptor 4 (Homo sapiens, UniProt P32245). Kind of data set: In vitro binding affinity towards melanocortin 4 receptor.
The next data set has as its system HEK293. Kind of data set: Ability to decrease the intracellular cAMP levels induced by 1 nM NDP-MSH in HEK293/ hMC4 cells. Format: functional, cell-based. The following applies: Homo sapiens. In general terms: cAMP levels reflect the balance of adenylyl cyclase and phosphodiesterase activity.
A short description of data set [1]: AUC in rat p.o. The format is ADME, organism-based. The following applies: plasma, po.
Data set [2] is described as follows: Plasma clearance in rat p.o. Format: ADME, organism-based. The following applies: po.
A short description of data set [3]: Cmax in rat. Format: ADME, organism-based. The note with it: in vivo.
A short description of data set [4]: Plasma clearance was determined. Format: ADME, organism-based. The following applies: rat.
A short description of data set [5]: Cmax in rat at the dose of 1 mg/kg i.v. The format is ADME, organism-based. The following applies: in vivo, iv. On the set-up: dose 1 mg/kg, route intravenous.
A short description of data set [6]: AUC was determined. The format is ADME. The following applies: plasma.

The text below walks through data of ChEMBL document CHEMBL1149212, “Synthesis and biological evaluation of imidazole-based small molecule antagonists of the melanocortin 4 receptor (MC4-R)” (Bioorg Med Chem Lett, 2004).

In general, Ki refers to the equilibrium dissociation constant of an inhibitor or competing ligand from its target. High values mean a looser hold on the target, low ones a stronger hold on the target. What is called IC50 is the point on the concentration scale where inhibition reaches its midpoint. Lower therefore signals inhibition by little substance. As a reminder, the AUC is concentration integrated over time. The term CL/F denotes clearance divided by bioavailability, as obtained after extravascular dosing. In general, Cmax refers to the peak of the concentration-time curve. The clearance is a measure of how efficiently the substance is removed, as volume per time.

Molecules are shown by their SMILES.

Sequence of Melanocortin receptor 4 (P32245 whole entry): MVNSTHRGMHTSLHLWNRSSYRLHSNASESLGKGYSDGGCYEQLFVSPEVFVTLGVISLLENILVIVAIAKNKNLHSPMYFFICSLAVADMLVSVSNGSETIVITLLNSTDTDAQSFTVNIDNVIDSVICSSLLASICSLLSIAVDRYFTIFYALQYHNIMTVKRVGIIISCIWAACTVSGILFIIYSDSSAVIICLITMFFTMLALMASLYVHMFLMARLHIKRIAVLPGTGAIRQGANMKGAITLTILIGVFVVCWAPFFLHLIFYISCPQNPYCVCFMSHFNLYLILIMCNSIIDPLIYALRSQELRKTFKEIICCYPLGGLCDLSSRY

The compound `COc1ccc(Br)cc1CCc1ccccc1-c1nc(C)cn1C` displayed a Ki on Melanocortin receptor 4 of 270 nM. The compound further came in with an IC50 with HEK293 of 240 nM.
For `COc1ccc(Br)cc1CCc1c(Cl)cccc1-c1nccn1C(C)C`, in that order: 670 nM and 1400 nM.
The matching figures for `CCC(C)n1ccnc1-c1cccc(Cl)c1CCc1cc(Br)ccc1OC` (configuration not stated): 2500 nM and 2100 nM.
The matching figures for `COc1ccc(Br)cc1CCc1ccccc1-c1ncc(C)n1C`: 180 nM and 51 nM.
`CCCn1ccnc1-c1cccc(Cl)c1CCc1cc(Br)ccc1OC` had a Ki at Melanocortin receptor 4 of 1300 nM. The compound also registered an IC50 in the data set with HEK293 of 1900 nM.
For `CCc1cn(C)c(-c2ccccc2CCc2cc(Br)ccc2OC)n1`, in that order: 690 nM and 820 nM.
For `COc1ccc(Br)cc1CCc1c(F)cccc1-c1ncc2n1CCC2`, in that order: 320 nM and 390 nM.
On Melanocortin receptor 4, `COc1ccc(Br)cc1CCc1c(Cl)cccc1-c1nccn1C` registered a Ki of 300 nM. Further, half-maximal inhibition in the data set with HEK293 (IC50) required 1100 nM.
The matching figures for `COc1ccc(Br)cc1CCc1c(Cl)cccc1-c1ncc2n1CCC2`: 180 nM and 710 nM.
For `Cn1ccnc1-c1cccc(Cl)c1CCc1cc(Br)ccc1O`, in that order: 9300 nM and 10200 nM.
For `COc1ccc(Br)cc1CCc1ccccc1-c1nc(C)c(C)n1C`, in that order: 140 nM and 200 nM.
Take `COc1ccc(Br)cc1CCc1ccccc1-c1nc(C(C)C)cn1C`: at Melanocortin receptor 4, the Ki stood at 1600 nM. The compound also had an IC50 with HEK293 of 1200 nM.
For `CCc1cnc(-c2ccccc2CCc2cc(Br)ccc2OC)n1C`, in that order: 320 nM and 170 nM.
The matching figures for `COc1ccc(Br)cc1CCc1c(F)cccc1-c1ncc2n1CCCC2`: 620 nM and 480 nM.
For the compound `COc1ccc(Br)cc1CCc1c(Cl)cccc1-c1ncc2n1CCCC2`, the AUC in data set [1] came out at 2 µM·h. Moreover, in data set [2], the CL/F is 18.3 mL/min/kg. Besides, on Melanocortin receptor 4, affinity was put at a Ki of 340 nM. Moreover, the Cmax in data set [3] is 6.45 µM. Besides, the IC50 in the data set with HEK293 came out at 590 nM.
`COc1ccc(Br)cc1CCc1c(Cl)cccc1-c1nccn1CC1CC1`: at Melanocortin receptor 4, affinity was put at a Ki of 2000 nM. Moreover, in the data set with HEK293, the IC50 amounted to 1700 nM.
For `COc1ccc(Br)cc1CCc1c(F)cccc1C1=NCCN1`, the clearance in data set [4] was 222 mL/min/kg. For the same compound, in data set [5], the Cmax is 0.031 µM. This compound also showed an AUC in data set [6] of 0.204 µM·h.
`COc1ccc(Br)cc1CCc1c(Cl)cccc1-c1ncc[nH]1` displayed a Ki at Melanocortin receptor 4 of 1500 nM. For the same compound, the 50% inhibitory concentration (IC50) in the data set on HEK293 stood at 580 nM.
For `CCn1ccnc1-c1cccc(Cl)c1CCc1cc(Br)ccc1OC`, in that order: 310 nM and 1800 nM.
